Measurements reported in ChEMBL document CHEMBL1157539, “Thousands of chemical starting points for antimalarial lead identification” (Nature, 2010).

Each molecule was assayed on Plasmodium falciparum (assay: GSK_TCMDC: Inhibition of Plasmodium falciparum 3D7 in whole erythrocytes, using parasite LDH activity as an index of growth.). Conditions: Plasmodium falciparum, 3D7.
Assay type: functional, organism-based

Compound	XC50 [nM]
O=C(NCc1ccc(F)cc1)Nc1ccc(-c2cccc(-c3nc4cc(F)ccc4[nH]3)c2)cc1	1120
C=CCOc1ccc(-c2c(C)[nH]c(C)c(Br)c2=O)cc1	283
COc1cc(F)c2ncc(C#N)c(CCN3CCC(NCc4ccc5c(c4)OCCO5)CC3)c2c1	428
CC(C)(CNC(=O)[C@H]1CCCCN1)c1nc(-c2ccc(Cl)c(O)c2)c(-c2ccncc2)[nH]1	727
COc1cc2nccc(Nc3ccc(NC(=O)c4ccc(C)cc4)c(O)c3)c2cc1OC	174
CC[C@H]1CN2CC[C@@H]1C[C@H]2[C@H](O)c1cc(N2CCC(CO)CC2)nc2ccc(OC)cc12	162
N#Cc1ccc(N2CCN(Cc3cccc(-c4ccc(-c5nc6cc(C(F)(F)F)ccc6[nH]5)cc4)c3)CC2)nc1	702
Cc1ccc(S(=O)(=O)N2CCN(C(=O)c3cc(-c4cccs4)n[nH]3)CC2)c(C)c1	866
Cc1cnccc1/C=C/c1cccc(OCCCN2CCc3ccc(S(C)(=O)=O)cc3CC2)c1	615
CC/N=C(/NCCCCCCN/C(=N/CC)NCc1ccccc1)NCc1ccccc1	702
Cc1cc(NC(=O)Nc2cccc(C#N)c2)c2ccccc2n1	581
COc1ccc(-c2nc3ccc(C)nc3nc2-c2ccc(OC)cc2)cc1	1110
CN1CCN(CCCCCCNc2c3ccccc3nc3ccccc23)CC1	722
Cc1ccccc1CN1CCCN(Cc2ccc(C(=O)Nc3ccc(C(C)(C)C)cc3)cc2)CC1	863
COc1cccc2cc(C(=O)N[C@@H](CC(C)C)C(=O)N[C@H](C=NNC(=O)OC(C)(C)C)CC(C)C)oc12	905
Cc1cc(N2CCCN(C)CC2)nc(Nc2ccc(Cl)cc2)n1	795
Oc1ccc(CCNCCCCNCCc2ccc(Cl)cc2)cc1O	843
O=C(Nc1cccc(CN2CCCN(Cc3ccc4c(c3)OCO4)CC2)c1)c1cc2ccccc2s1	990
O=c1cc(NCCCNCc2ccccc2-c2ccccc2)[nH]c2ccccc12	975
Cc1cc(N(C)C)nc(Nc2ccc(NC(=O)COc3ccccc3)cc2)n1	1760
CCCN(Cc1nnc(-c2ccco2)o1)C(=O)C1CCN(c2ncc(C(F)(F)F)cc2Cl)CC1	691
OC(CNC1CCCCCC1)c1ccc(Cl)c(Cl)c1 (centres undefined)	688
Clc1ccc2c(Cl)c(CNCCCNc3nc4ccccc4[nH]3)[nH]c2c1	219
NC(=O)c1cccc(CNC(=O)NC[C@H]2CN(Cc3ccc(Cl)c(Cl)c3)CCO2)c1	586
Oc1cccc(-c2nc(-c3cccc(I)c3)c(-c3ccc(-c4nc(-c5cccc(O)c5)[nH]c4-c4cccc(I)c4)cc3)[nH]2)c1	925

Compound	XC50 [nM]
O=S(=O)(Nc1ccc2nccc(N3CCNCC3)c2c1)c1ccc2oc3ccccc3c2c1	695
Cc1ccc(NC(=O)N2CCCN(CCCCCNC(=O)/C=C/c3ccc(Cl)c(Cl)c3)CC2)cc1	758
O=C(Nc1ccc(F)cc1)NC1CCN(c2ccnc3cc(Cl)ccc23)C1 (centres undefined)	218
CCCNC(=O)c1cncc(-c2cccc(CNC3Cc4ccccc4C3)c2)c1	803
NS(=O)(=O)c1ccc(CNC(=O)c2cnc3c(O)cccc3c2Nc2cccc(NC(=O)c3ccc(Cl)c(Cl)c3)c2)cc1	1720
Cc1nc2nc(N)nc(N)c2c(C)c1Cc1ccccc1Br	60.2
Nc1n[nH]c(-c2ccccc2Nc2ccnc3cc(-c4nccs4)ccc23)n1	1120
COc1ccc2[nH]ccc(=NN=Cc3ccc(F)cc3)c2c1	720
COc1cccc(OC)c1C(=O)N1CCC2(CC1)C(=O)N(CC(=O)NC1CCCCC1)CN2c1ccccc1	953
CC(C)CCN1CCCN(Cc2cccc(NC(=O)c3ccc(-c4ccccc4)cc3)c2)CC1	888
CCNc1cc(C)nc(Nc2ccc(NC(=O)c3ccccc3)cc2)n1	1020
Cc1cc(N2CCC(N(C)C)C2)nc(Nc2ccc(Cl)cc2)n1 (centres undefined)	517
COc1ccc(Cl)cc1N1CCN(CCCNC(=O)c2ccc(-c3nc4cc(Cl)c(F)cc4[nH]3)cc2)CC1	1060
COc1ccc2c(c1)[nH]c1c(C=Cc3ccccc3)nccc12	379
O=C(NCCN1CCOCC1)c1ccc(O)c(-c2cccc(C(F)(F)F)c2)c1	752
NOCCCCOc1ccc(Br)cc1	189
Cc1cc(Nc2cccc(C(F)(F)F)c2)nc(Nc2cccc(C(F)(F)F)c2)n1	644
COc1nc2c(CCN3CC[C@@H](NCc4cc(C#N)c5c(c4)CCO5)[C@@H](O)C3)ccnc2cc1F	1030
Cc1cc(N(C)C2CCN(CC3CCCCC3)C2)nc(Nc2ccc(Br)cc2)n1 (centres undefined)	703
COc1cccc(C2CCCN(CCCCNC(=O)c3ccc(NC(=O)c4ccc(Cl)cc4)cc3)C2)c1 (centres undefined)	864
Cc1[nH]c(C)c(-c2ccc(Oc3ccc(F)cc3)cc2)c(=O)c1Br	54.9
CCC(ON1C(N)=NC(N)=NC1(C)C)c1ccccc1 (centres undefined)	33.5
Nc1nc(N)c2cc(C#Cc3ccc(-c4ccccc4)cc3)ccc2n1	810
CC(CCc1ccccc1)NCC(O)c1cccc(C(F)(F)F)c1 (centres undefined)	709
COc1ccc2c(CNCCCCCCNCc3c(OC)ccc4cc(OC)ccc34)c(OC)ccc2c1	560

Compound	XC50 [nM]
CC(C)c1cc(Oc2c(I)cc(CCNC(=N)N)cc2I)ccc1O	788
Clc1ccc(-c2cc(-c3csc(NCCN4CCCCC4)n3)on2)cc1	989
O=C(Nc1cccc(C(F)(F)F)c1)NC1CCN(c2ccnc3ccccc23)CC1	988
C#CC[C@@H](NC(N)=O)C(=O)O	189
Cc1cccc2nc(-c3cccc(-c4ccc(NC(=O)Nc5ccc(Cl)cc5)cc4)c3)[nH]c12	199
COc1ccc(CNC(=O)NC2CCN(c3ccnc(Nc4ccc(F)cc4)n3)C2)cc1 (centres undefined)	842
COc1ccc(Cc2c(C)nc3nc(N)nc(N)c3c2C)cc1	284
COc1cc2nc(Nc3ccc(C)cc3)nc(Nc3ccc(C)cc3)c2cc1OC	139
Cc1cc(Nc2ccc(Oc3ccc(Cl)cc3)cc2)nc(N)n1	616
CN(C)CC(O)C(c1ccccc1)c1ccc(Cl)cc1 (centres undefined)	48.4
O=C(/C=C/c1ccc(Cl)c(Cl)c1)NCCCCCN1CCCC(CNS(=O)(=O)c2ccc(F)cc2)C1 (centres undefined)	1160
O=C(Nc1ccc(Cl)cc1F)N[C@H]1CCN(CCCCCNC(=O)C2CC2c2ccc(Cl)c(Cl)c2)C1 (some centres undefined)	1090
Cc1cccc(CCCNC(=O)CN(c2cccc(C(F)(F)F)c2)S(=O)(=O)c2ccc(C(F)(F)F)cc2)c1	684
COc1ccc(CN2CCCN(Cc3ccc(C(=O)Nc4ccc(Cl)cc4)cc3)CC2)cc1	919
Nc1nc(N)c2c(Cl)c(N(Cc3ccccc3)Cc3ccccc3)ccc2n1	192
CCn1cc(C=C2Oc3c(ccc(O)c3CN3CCCCC3)C2=O)c2ccccc21	281
CO/C(=C\C=C\c1cc2cc(Cl)c(Cl)cc2[nH]1)C(=O)NCC(C)(C)CN(C)C	1160
O=C(Nc1cccc(C(F)(F)F)c1)NC1CCN(c2ccnc3cc(Cl)ccc23)C1 (centres undefined)	120
Cc1cccc2nc(-c3ccc(-c4cccc(NC(=O)C(C)CN5CCN(C)CC5)c4)s3)[nH]c12 (centres undefined)	748
CCOc1ccc2c(=NN=Cc3ccccc3OC)cc(C)[nH]c2c1	496
Cc1cc2ccccc2c(CON2C(=N)N=C(N)NC2(C)C)c1C	9.5
NC1=NC2(CCCCC2)N(OCCCCCCN2C(=O)c3ccccc3C2=O)C(N)=N1	871
Cc1cc(N[C@@H](Cc2ccccc2)C(=O)Nc2ccccc2)nc(NCCc2cccs2)n1	796
COc1cc(NC(=O)/C=C/c2cc(F)cc(F)c2F)cc(OCCN2CCCCC2)c1	153
